Experimental data reported in PubChem BioAssay (NCI).
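48-hour exposure; five concentrations; linearly interpolated endpoints. The concentration for 50% growth inhibition is given as GI50. TGI: total growth inhibition.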

Assays:
Assay in all cases: NCI-60 cell line screen, 48 h
MDA-MB-435 = tested on: MDA-MB-435
SF-268 CNS = tested on: SF-268 CNS
KM12 colon = tested on: KM12 colon
M14 melanoma = tested on: M14 melanoma
HOP-92 NSCLC = tested on: HOP-92 NSCLC
HS 578T breast = tested on: HS 578T breast
DU-145 prostate = tested on: DU-145 prostate
T-47D breast = tested on: T-47D breast
SF-539 CNS = tested on: SF-539 CNS
MCF7 breast = tested on: MCF7 breast
SNB-19 CNS = tested on: SNB-19 CNS
HL-60(TB) leukemia = tested on: HL-60(TB) leukemia
EKVX NSCLC = tested on: EKVX NSCLC
K-562 leukemia = tested on: K-562 leukemia
NCI-H226 lung = tested on: NCI-H226 lung
SNB-75 CNS = tested on: SNB-75 CNS
SK-MEL-28 melanoma = tested on: SK-MEL-28 melanoma
HOP-62 NSCLC = tested on: HOP-62 NSCLC
XF 498 CNS = tested on: XF 498 CNS
HCT-15 colon = tested on: HCT-15 colon
OVCAR-8 ovarian = tested on: OVCAR-8 ovarian
OVCAR-5 ovarian = tested on: OVCAR-5 ovarian
SR leukemia = tested on: SR leukemia
UO-31 renal = tested on: UO-31 renal
A549 NSCLC = tested on: A549 NSCLC
HT29 colon = tested on: HT29 colon
DMS 273 small cell lung = tested on: DMS 273 small cell lung
NCI-H23 lung = tested on: NCI-H23 lung
KM20L2 colon = tested on: KM20L2 colon
UACC-62 melanoma = tested on: UACC-62 melanoma
SN12C renal = tested on: SN12C renal
MALME-3M melanoma = tested on: MALME-3M melanoma
NCI-H460 lung = tested on: NCI-H460 lung
786-0 renal = tested on: 786-0 renal
M19-MEL melanoma = tested on: M19-MEL melanoma
LXFL 529 NSCLC = tested on: LXFL 529 NSCLC
NCI-H522 lung = tested on: NCI-H522 lung
ACHN renal = tested on: ACHN renal
NCI/ADR-RES ovarian = tested on: NCI/ADR-RES ovarian
U251 CNS = tested on: U251 CNS
LOX IMVI melanoma = tested on: LOX IMVI melanoma
BT-549 breast = tested on: BT-549 breast
SNB-78 CNS = tested on: SNB-78 CNS
SK-MEL-2 melanoma = tested on: SK-MEL-2 melanoma
A498 renal = tested on: A498 renal
OVCAR-3 ovarian = tested on: OVCAR-3 ovarian
RXF 393 renal = tested on: RXF 393 renal
RPMI-8226 leukemia = tested on: RPMI-8226 leukemia

`C[CH2][Sn]([CH2]C)([O]C(=O)c1cccc(OC)c1)[O][Sn]([CH2]C)([CH2]C)[O]C(=O)c1cccc(OC)c1` showed a GI50 (MDA-MB-435) of 18.8 µM, a TGI (MDA-MB-435) of 42.4 µM and a GI50 (SF-268 CNS) of 23.2 µM. It also gave a TGI (SF-268 CNS) greater than 56.6 µM, a GI50 (KM12 colon) greater than 100 µM and a TGI (KM12 colon) greater than 100 µM. It also gave a GI50 (M14 melanoma) of 30.9 µM, a TGI (M14 melanoma) greater than 59.4 µM and a GI50 (HOP-92 NSCLC) of 15 µM. It also gave a TGI (HOP-92 NSCLC) of 29.8 µM, a GI50 (HS 578T breast) of 29.3 µM and a TGI (HS 578T breast) greater than 100 µM. The GI50 (DU-145 prostate) was greater than 100 µM, the TGI (DU-145 prostate) was greater than 100 µM and the GI50 (T-47D breast) was 3.05 µM. It also gave a TGI (T-47D breast) of 13.5 µM, a GI50 (SF-539 CNS) of 16.4 µM and a TGI (SF-539 CNS) of 30.4 µM. The GI50 (MCF7 breast) was 10.1 µM, the TGI (MCF7 breast) was 26.6 µM and the GI50 (SNB-19 CNS) was 23.1 µM. It also gave a TGI (SNB-19 CNS) of 57.1 µM, a GI50 (HL-60(TB) leukemia) of 19.2 µM and a TGI (HL-60(TB) leukemia) of 70.9 µM. The GI50 (EKVX NSCLC) was greater than 40.8 µM, the TGI (EKVX NSCLC) was greater than 55.6 µM and the GI50 (K-562 leukemia) was 9.4 µM. It also gave a TGI (K-562 leukemia) of 60.3 µM, a GI50 (NCI-H226 lung) of 18.4 µM and a TGI (NCI-H226 lung) of 33.2 µM. For the same molecule, the GI50 (SNB-75 CNS) was 14.6 µM, the TGI (SNB-75 CNS) was 42.2 µM and the GI50 (SK-MEL-28 melanoma) was 16.3 µM. It also gave a TGI (SK-MEL-28 melanoma) of 35.9 µM, a GI50 (HOP-62 NSCLC) greater than 58.2 µM and a TGI (HOP-62 NSCLC) greater than 100 µM. It also gave a GI50 (XF 498 CNS) of 16.1 µM, a TGI (XF 498 CNS) of 29.6 µM and a GI50 (HCT-15 colon) of 17.4 µM. The TGI (HCT-15 colon) was 35.4 µM, the GI50 (OVCAR-8 ovarian) was greater than 42.1 µM and the TGI (OVCAR-8 ovarian) was greater than 57 µM. The GI50 (OVCAR-5 ovarian) was 27 µM, the TGI (OVCAR-5 ovarian) was greater than 61.6 µM and the GI50 (SR leukemia) was 26.3 µM. For the same molecule, the TGI (SR leukemia) was greater than 100 µM, the GI50 (UO-31 renal) was 34 µM and the TGI (UO-31 renal) was greater than 53.5 µM. It also gave a GI50 (A549 NSCLC) greater than 100 µM, a TGI (A549 NSCLC) greater than 100 µM and a GI50 (HT29 colon) of 33.2 µM. For the same molecule, the TGI (HT29 colon) was greater than 100 µM, the GI50 (DMS 273 small cell lung) was 22.7 µM and the TGI (DMS 273 small cell lung) was 58.5 µM. For the same molecule, the GI50 (NCI-H23 lung) was 17.6 µM, the TGI (NCI-H23 lung) was 36.2 µM and the GI50 (KM20L2 colon) was 43.6 µM. It also gave a TGI (KM20L2 colon) greater than 100 µM, a GI50 (UACC-62 melanoma) of 16.6 µM and a TGI (UACC-62 melanoma) of 31.4 µM. For the same molecule, the GI50 (SN12C renal) was 19.9 µM, the TGI (SN12C renal) was 44.9 µM and the GI50 (MALME-3M melanoma) was 15 µM. The TGI (MALME-3M melanoma) was 30.4 µM, the GI50 (NCI-H460 lung) was greater than 71 µM and the TGI (NCI-H460 lung) was greater than 100 µM. For the same molecule, the GI50 (786-0 renal) was 17 µM, the TGI (786-0 renal) was 30.7 µM and the GI50 (M19-MEL melanoma) was 17.1 µM. It also gave a TGI (M19-MEL melanoma) of 31.7 µM, a GI50 (LXFL 529 NSCLC) of 10.1 µM and a TGI (LXFL 529 NSCLC) of 21.7 µM. It also gave a GI50 (NCI-H522 lung) of 0.879 µM, a TGI (NCI-H522 lung) of 2.4 µM and a GI50 (ACHN renal) of 17.1 µM. It also gave a TGI (ACHN renal) of 31.4 µM, a GI50 (NCI/ADR-RES ovarian) greater than 100 µM and a TGI (NCI/ADR-RES ovarian) greater than 100 µM. The GI50 (U251 CNS) was 18.6 µM, the TGI (U251 CNS) was 35.1 µM and the GI50 (LOX IMVI melanoma) was 11.4 µM. For the same molecule, the TGI (LOX IMVI melanoma) was 25.9 µM, the GI50 (BT-549 breast) was 15.4 µM and the TGI (BT-549 breast) was 29.4 µM. The GI50 (SNB-78 CNS) was 16.2 µM, the TGI (SNB-78 CNS) was 32.9 µM and the GI50 (SK-MEL-2 melanoma) was 16.6 µM. The TGI (SK-MEL-2 melanoma) was 37.4 µM, the GI50 (A498 renal) was 16 µM and the TGI (A498 renal) was 30.2 µM. It also gave a GI50 (OVCAR-3 ovarian) of 58 µM, a TGI (OVCAR-3 ovarian) greater than 100 µM and a GI50 (RXF 393 renal) of 15 µM. It also gave a TGI (RXF 393 renal) of 28.4 µM, a GI50 (RPMI-8226 leukemia) of 13 µM and a TGI (RPMI-8226 leukemia) of 54.3 µM.
